Assay results taken from the kinase profiling compilation of Christmann-Franck et al. (2016).

Assays:
Assay in all cases: KINOMEscan competition binding
Settings in all cases: compound 10.0 µM
DSTYK (human) = DSTYK (human) (UniProt Q6XUX3)
EPHA4 (human) = EPHA4 (human) (UniProt P54764)
[1] = system: ABL1 (human), P00519 [Y253F]
OXSR1 (human) = OXSR1 (human) (UniProt O95747)
ERN1 (human) = ERN1 (human) (UniProt O75460)
NEK1 (human) = NEK1 (human) (UniProt Q96PY6)
CPK1 (P.falciparum) = system: CPK1 (P.falciparum)
MAP2K4 (human) = MAP2K4 (human) (UniProt P45985)
EPHA3 (human) = EPHA3 (human) (UniProt P29320)
IKBKE (human) = IKBKE (human) (UniProt Q14164)
AURKC (human) = AURKC (human) (UniProt Q9UQB9)
MAP4K5 (human) = MAP4K5 (human) (UniProt Q9Y4K4)
PKN2 (human) = PKN2 (human) (UniProt Q16513)
CDK11B (human) = CDK11B (human) (UniProt P21127)
LCK (human) = LCK (human) (UniProt P06239)
RPS6KA6 KD2 (human) = RPS6KA6 KD2 (human) (UniProt Q9UK32)
ACVR1 (human) = ACVR1 (human) (UniProt Q04771)
MATK (human) = MATK (human) (UniProt P42679)
RIPK1 (human) = RIPK1 (human) (UniProt Q13546)
CDK4 CCND1 (human) = CDK4 CCND1 (human) (UniProt P11802+P24385)
CAMKK1 (human) = CAMKK1 (human) (UniProt Q8N5S9)
FLT1 (human) = FLT1 (human) (UniProt P17948)
SRPK2 (human) = SRPK2 (human) (UniProt P78362)
STK32C (human) = STK32C (human) (UniProt Q86UX6)
CSNK1G3 (human) = CSNK1G3 (human) (UniProt Q9Y6M4)
EPHA7 (human) = EPHA7 (human) (UniProt Q15375)
FES (human) = FES (human) (UniProt P07332)
MKNK2 (human) = MKNK2 (human) (UniProt Q9HBH9)
SRMS (human) = SRMS (human) (UniProt Q9H3Y6)
MAP3K12 (human) = MAP3K12 (human) (UniProt Q12852)
TNK2 (human) = TNK2 (human) (UniProt Q07912)
PDGFRB (human) = PDGFRB (human) (UniProt P09619)
NEK11 (human) = NEK11 (human) (UniProt Q8NG66)
AKT1 (human) = AKT1 (human) (UniProt P31749)
MAP3K13 (human) = MAP3K13 (human) (UniProt O43283)
CAMK4 (human) = CAMK4 (human) (UniProt Q16566)
MAPK8 (human) = MAPK8 (human) (UniProt P45983)
PAK7 (human) = PAK7 (human) (UniProt Q9P286)
ACVRL1 (human) = ACVRL1 (human) (UniProt P37023)
IRAK1 (human) = IRAK1 (human) (UniProt P51617)

PAK7 (human), sequence (Q9P286 whole entry, looked up): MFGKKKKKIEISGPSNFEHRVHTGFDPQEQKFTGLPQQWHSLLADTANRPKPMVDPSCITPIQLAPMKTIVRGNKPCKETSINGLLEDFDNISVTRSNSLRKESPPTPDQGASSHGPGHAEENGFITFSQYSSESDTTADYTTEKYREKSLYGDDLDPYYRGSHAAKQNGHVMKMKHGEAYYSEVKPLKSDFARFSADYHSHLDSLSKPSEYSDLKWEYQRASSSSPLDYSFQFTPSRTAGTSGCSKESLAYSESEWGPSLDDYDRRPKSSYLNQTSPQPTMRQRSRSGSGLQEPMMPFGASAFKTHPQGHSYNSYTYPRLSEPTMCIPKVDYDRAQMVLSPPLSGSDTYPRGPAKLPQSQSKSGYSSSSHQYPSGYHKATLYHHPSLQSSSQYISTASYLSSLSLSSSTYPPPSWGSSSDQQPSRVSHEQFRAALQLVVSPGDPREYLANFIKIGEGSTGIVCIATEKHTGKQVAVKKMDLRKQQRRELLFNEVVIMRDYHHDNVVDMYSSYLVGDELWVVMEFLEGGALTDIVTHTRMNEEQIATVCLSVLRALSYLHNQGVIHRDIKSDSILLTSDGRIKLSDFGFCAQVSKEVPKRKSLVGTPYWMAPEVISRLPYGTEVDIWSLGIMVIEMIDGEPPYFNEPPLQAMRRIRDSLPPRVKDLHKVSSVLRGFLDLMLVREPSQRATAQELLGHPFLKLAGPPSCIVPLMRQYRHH
NEK1 (human), sequence (Q96PY6 whole entry, looked up): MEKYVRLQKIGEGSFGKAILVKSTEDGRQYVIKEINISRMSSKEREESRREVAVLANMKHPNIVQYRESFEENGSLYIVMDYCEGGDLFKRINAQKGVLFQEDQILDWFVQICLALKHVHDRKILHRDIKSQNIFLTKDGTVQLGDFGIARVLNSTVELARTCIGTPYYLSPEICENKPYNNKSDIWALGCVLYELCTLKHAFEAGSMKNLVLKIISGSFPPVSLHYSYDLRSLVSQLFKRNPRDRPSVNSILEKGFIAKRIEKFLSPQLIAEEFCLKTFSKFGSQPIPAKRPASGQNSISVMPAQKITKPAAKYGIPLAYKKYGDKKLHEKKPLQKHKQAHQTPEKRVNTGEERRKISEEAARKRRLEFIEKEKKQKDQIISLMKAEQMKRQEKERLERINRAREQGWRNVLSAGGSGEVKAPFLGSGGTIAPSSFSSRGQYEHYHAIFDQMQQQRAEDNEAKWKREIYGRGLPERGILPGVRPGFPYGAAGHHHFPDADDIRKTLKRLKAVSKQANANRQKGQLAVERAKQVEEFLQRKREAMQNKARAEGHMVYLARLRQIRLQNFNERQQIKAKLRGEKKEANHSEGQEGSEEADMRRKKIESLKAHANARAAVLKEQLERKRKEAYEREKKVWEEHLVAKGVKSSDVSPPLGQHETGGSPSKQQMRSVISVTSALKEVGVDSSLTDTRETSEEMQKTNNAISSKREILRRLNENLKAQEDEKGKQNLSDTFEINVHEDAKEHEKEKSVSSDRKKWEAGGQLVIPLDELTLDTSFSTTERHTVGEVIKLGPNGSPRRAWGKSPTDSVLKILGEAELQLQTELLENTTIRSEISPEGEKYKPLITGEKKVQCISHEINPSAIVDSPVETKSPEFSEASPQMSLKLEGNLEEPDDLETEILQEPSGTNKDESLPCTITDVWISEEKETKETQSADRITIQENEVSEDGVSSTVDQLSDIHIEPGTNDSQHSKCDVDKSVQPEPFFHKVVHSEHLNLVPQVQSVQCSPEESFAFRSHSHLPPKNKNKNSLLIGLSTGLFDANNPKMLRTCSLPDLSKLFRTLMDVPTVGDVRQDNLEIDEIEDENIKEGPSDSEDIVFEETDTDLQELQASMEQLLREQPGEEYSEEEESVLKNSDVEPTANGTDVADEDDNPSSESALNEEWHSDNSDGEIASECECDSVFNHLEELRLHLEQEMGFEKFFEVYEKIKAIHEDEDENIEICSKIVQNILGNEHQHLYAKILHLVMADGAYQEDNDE
CDK11B (human), sequence (P21127 whole entry, looked up): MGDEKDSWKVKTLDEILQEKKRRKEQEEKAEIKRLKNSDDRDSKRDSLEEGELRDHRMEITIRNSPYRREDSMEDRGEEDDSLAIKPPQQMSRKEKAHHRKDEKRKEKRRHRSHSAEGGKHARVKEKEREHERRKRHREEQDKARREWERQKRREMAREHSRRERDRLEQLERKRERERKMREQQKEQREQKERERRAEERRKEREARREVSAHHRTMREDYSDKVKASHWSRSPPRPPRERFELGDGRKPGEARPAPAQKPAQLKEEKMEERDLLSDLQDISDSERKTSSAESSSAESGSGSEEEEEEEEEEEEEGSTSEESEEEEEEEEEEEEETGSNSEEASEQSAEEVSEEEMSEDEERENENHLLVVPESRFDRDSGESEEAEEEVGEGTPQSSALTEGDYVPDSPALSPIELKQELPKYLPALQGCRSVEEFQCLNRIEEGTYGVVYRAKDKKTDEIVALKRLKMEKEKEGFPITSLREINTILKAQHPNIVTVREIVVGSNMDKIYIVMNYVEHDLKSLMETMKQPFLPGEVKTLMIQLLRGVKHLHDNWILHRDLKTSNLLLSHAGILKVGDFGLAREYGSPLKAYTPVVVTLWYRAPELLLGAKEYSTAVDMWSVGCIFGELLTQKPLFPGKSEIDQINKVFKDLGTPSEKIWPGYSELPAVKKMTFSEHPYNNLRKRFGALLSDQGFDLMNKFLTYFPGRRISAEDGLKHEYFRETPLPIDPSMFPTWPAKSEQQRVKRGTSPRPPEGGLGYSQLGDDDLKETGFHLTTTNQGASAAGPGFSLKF
DSTYK (human), sequence (Q6XUX3 whole entry, looked up): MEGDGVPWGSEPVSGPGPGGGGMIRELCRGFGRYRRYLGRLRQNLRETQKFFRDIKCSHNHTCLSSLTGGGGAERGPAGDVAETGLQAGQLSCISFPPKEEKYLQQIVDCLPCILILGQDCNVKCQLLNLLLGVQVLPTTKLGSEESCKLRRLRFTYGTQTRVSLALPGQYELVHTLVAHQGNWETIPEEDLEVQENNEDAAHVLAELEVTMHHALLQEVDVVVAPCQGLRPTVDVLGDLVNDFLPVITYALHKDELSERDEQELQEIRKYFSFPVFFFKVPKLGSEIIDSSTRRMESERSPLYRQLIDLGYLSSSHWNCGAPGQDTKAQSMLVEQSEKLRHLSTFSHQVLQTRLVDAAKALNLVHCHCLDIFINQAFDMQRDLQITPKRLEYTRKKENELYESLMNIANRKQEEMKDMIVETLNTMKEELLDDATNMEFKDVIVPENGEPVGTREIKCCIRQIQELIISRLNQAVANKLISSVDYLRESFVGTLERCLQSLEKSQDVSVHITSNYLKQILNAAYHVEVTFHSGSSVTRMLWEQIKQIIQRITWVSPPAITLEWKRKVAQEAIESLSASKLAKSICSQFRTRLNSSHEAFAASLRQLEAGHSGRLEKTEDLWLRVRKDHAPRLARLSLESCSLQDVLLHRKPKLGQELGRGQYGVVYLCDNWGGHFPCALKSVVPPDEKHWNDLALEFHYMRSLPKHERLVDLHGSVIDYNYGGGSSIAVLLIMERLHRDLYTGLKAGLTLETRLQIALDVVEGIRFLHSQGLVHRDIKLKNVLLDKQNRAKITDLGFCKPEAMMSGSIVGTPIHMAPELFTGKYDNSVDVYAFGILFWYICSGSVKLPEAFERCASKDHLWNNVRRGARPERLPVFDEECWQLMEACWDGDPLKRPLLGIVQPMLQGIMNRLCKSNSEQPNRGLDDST
OXSR1 (human), sequence (O95747 whole entry, looked up): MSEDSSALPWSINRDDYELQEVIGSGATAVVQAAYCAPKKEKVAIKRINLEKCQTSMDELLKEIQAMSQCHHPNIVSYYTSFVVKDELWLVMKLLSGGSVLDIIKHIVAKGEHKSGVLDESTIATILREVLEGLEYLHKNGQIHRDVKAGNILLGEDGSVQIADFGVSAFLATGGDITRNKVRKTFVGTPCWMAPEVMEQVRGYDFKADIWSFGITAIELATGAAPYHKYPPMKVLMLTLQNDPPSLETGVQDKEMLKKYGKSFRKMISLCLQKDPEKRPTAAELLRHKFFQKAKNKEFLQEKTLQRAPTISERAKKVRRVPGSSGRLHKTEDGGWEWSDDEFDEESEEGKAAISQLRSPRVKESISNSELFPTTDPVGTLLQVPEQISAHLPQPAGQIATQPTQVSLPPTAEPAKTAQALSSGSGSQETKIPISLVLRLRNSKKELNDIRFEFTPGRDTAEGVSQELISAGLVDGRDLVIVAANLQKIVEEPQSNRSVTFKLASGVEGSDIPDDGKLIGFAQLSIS
SRPK2 (human), sequence (P78362 whole entry, looked up): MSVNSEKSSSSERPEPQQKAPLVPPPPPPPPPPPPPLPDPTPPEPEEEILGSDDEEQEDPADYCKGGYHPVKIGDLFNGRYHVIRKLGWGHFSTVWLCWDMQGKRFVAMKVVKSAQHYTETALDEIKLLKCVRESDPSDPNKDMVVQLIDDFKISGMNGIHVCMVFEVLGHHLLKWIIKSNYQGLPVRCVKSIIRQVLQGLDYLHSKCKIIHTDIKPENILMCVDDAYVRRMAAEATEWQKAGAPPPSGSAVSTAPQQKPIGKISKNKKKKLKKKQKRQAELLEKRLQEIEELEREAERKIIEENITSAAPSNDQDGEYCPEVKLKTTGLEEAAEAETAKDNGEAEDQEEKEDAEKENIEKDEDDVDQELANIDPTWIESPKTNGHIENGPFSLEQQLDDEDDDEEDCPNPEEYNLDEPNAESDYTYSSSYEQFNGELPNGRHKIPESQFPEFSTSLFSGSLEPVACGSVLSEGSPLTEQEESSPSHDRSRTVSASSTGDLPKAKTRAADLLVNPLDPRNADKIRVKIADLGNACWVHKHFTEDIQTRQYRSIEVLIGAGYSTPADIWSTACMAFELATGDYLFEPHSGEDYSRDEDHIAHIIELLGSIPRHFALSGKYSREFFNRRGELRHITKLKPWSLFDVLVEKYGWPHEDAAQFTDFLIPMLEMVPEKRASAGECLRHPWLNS

## CCN1CCN(C(=O)Cc2ccc(Nc3ncc(F)c(Nc4ccc(C(=O)Nc5ccccc5Cl)cc4)n3)cc2)CC1
DSTYK (human)
  kinase still bound, per cent of control: 71%
EPHA4 (human)
  kinase still bound, per cent of control: 83%
[1]
  kinase still bound, per cent of control: 16%
OXSR1 (human)
  kinase still bound, per cent of control: 100%
ERN1 (human)
  kinase still bound, per cent of control: 91%
NEK1 (human)
  kinase still bound, per cent of control: 17%
CPK1 (P.falciparum)
  kinase still bound, per cent of control: 29%
MAP2K4 (human)
  kinase still bound, per cent of control: 49%
EPHA3 (human)
  kinase still bound, per cent of control: 62%
IKBKE (human)
  kinase still bound, per cent of control: 100%
AURKC (human)
  kinase still bound, per cent of control: 1.2%
MAP4K5 (human)
  kinase still bound, per cent of control: 64%
PKN2 (human)
  kinase still bound, per cent of control: 100%
CDK11B (human)
  kinase still bound, per cent of control: 87%
LCK (human)
  kinase still bound, per cent of control: 6.6%
RPS6KA6 KD2 (human)
  kinase still bound, per cent of control: 62%
ACVR1 (human)
  kinase still bound, per cent of control: 13%
MATK (human)
  kinase still bound, per cent of control: 100%
RIPK1 (human)
  kinase still bound, per cent of control: 96%
CDK4 CCND1 (human)
  kinase still bound, per cent of control: 34%
CAMKK1 (human)
  kinase still bound, per cent of control: 25%
FLT1 (human)
  kinase still bound, per cent of control: 9.6%
SRPK2 (human)
  kinase still bound, per cent of control: 11%
STK32C (human)
  kinase still bound, per cent of control: 77%
CSNK1G3 (human)
  kinase still bound, per cent of control: 100%
EPHA7 (human)
  kinase still bound, per cent of control: 55%
FES (human)
  kinase still bound, per cent of control: 48%
MKNK2 (human)
  kinase still bound, per cent of control: 5.6%
SRMS (human)
  kinase still bound, per cent of control: 58%
MAP3K12 (human)
  kinase still bound, per cent of control: 71%
TNK2 (human)
  kinase still bound, per cent of control: 10%
PDGFRB (human)
  kinase still bound, per cent of control: 0.15%
NEK11 (human)
  kinase still bound, per cent of control: 100%
AKT1 (human)
  kinase still bound, per cent of control: 100%
MAP3K13 (human)
  kinase still bound, per cent of control: 44%
CAMK4 (human)
  kinase still bound, per cent of control: 100%
MAPK8 (human)
  kinase still bound, per cent of control: 1.7%
PAK7 (human)
  kinase still bound, per cent of control: 56%
ACVRL1 (human)
  kinase still bound, per cent of control: 100%
IRAK1 (human)
  kinase still bound, per cent of control: 22%

## O=C1NC(=O)/C(=C/c2ccc3nccc(-c4ccncc4)c3c2)S1
DSTYK (human)
  kinase still bound, per cent of control: 61%
EPHA4 (human)
  kinase still bound, per cent of control: 96%
[1]
  kinase still bound, per cent of control: 68%
OXSR1 (human)
  kinase still bound, per cent of control: 87%
ERN1 (human)
  kinase still bound, per cent of control: 66%
NEK1 (human)
  kinase still bound, per cent of control: 47%
CPK1 (P.falciparum)
  kinase still bound, per cent of control: 11%
MAP2K4 (human)
  kinase still bound, per cent of control: 9.6%
EPHA3 (human)
  kinase still bound, per cent of control: 75%
IKBKE (human)
  kinase still bound, per cent of control: 45%
AURKC (human)
  kinase still bound, per cent of control: 56%
MAP4K5 (human)
  kinase still bound, per cent of control: 41%
PKN2 (human)
  kinase still bound, per cent of control: 31%
CDK11B (human)
  kinase still bound, per cent of control: 95%
LCK (human)
  kinase still bound, per cent of control: 62%
RPS6KA6 KD2 (human)
  kinase still bound, per cent of control: 5.2%
ACVR1 (human)
  kinase still bound, per cent of control: 36%
MATK (human)
  kinase still bound, per cent of control: 50%
RIPK1 (human)
  kinase still bound, per cent of control: 100%
CDK4 CCND1 (human)
  kinase still bound, per cent of control: 92%
CAMKK1 (human)
  kinase still bound, per cent of control: 12%
FLT1 (human)
  kinase still bound, per cent of control: 73%
SRPK2 (human)
  kinase still bound, per cent of control: 86%
STK32C (human)
  kinase still bound, per cent of control: 96%
CSNK1G3 (human)
  kinase still bound, per cent of control: 2.4%
EPHA7 (human)
  kinase still bound, per cent of control: 88%
FES (human)
  kinase still bound, per cent of control: 100%
MKNK2 (human)
  kinase still bound, per cent of control: 49%
SRMS (human)
  kinase still bound, per cent of control: 67%
MAP3K12 (human)
  kinase still bound, per cent of control: 96%
TNK2 (human)
  kinase still bound, per cent of control: 100%
PDGFRB (human)
  kinase still bound, per cent of control: 55%
NEK11 (human)
  kinase still bound, per cent of control: 72%
AKT1 (human)
  kinase still bound, per cent of control: 90%
MAP3K13 (human)
  kinase still bound, per cent of control: 82%
CAMK4 (human)
  kinase still bound, per cent of control: 100%
MAPK8 (human)
  kinase still bound, per cent of control: 18%
PAK7 (human)
  kinase still bound, per cent of control: 91%
ACVRL1 (human)
  kinase still bound, per cent of control: 85%
IRAK1 (human)
  kinase still bound, per cent of control: 0.25%
